Source: US8552176B2 (priority 2010, dated 2013)
Read-outs that look alike come from different tables or passages of the source.

What was measured:
Experiment in all cases: cells
H1299 = format: cell-based, human; settings: read-out: GI50 H1299 lung (−p53)
Hep3b = format: cell-based, human; settings: read-out: GI50 Hep3b liver
DU-145 = format: cell-based, human; settings: read-out: GI50 DU-145 prostate
A549 = format: cell-based, human; settings: read-out: GI50 A549 lung (+p53)
MCF7 = format: cell-based, human; settings: read-out: GI50 MCF7 breast
[1] = system: ten-member panel of human carcinomas; format: cell-based
HCT-15 = format: cell-based, human; settings: read-out: GI50 HCT-15 colorectal
HT29 = format: cell-based, human; settings: read-out: GI50 HT29 colorectal
NCI-H460 = format: cell-based, human; settings: read-out: GI50 NCI-H460 lung
SF-268 = format: cell-based, human; settings: read-out: GI50 SF-268 CNS
SKOV3 = format: cell-based, human; settings: read-out: GI50 SKOV3 ovary

`CON(CCCCc1ccc(N(CCCl)CCCl)cc1)C1OCC(O)C(O)C1O` (mixture of isomers) [Compound 53, N-Methoxy-4-(4-N′,N′-bis(2-chloroethyl)amino)phenylbutylamino-D-riboside] gave a GI50 (H1299) of 3.6 ± 0.3 µM, a GI50 (Hep3b) of 2.4 ± 0.1 µM and a GI50 (DU-145) of 3.8 ± 0.6 µM. The GI50 (A549) was 2.8 ± 0.1 µM, the GI50 (MCF7) was 1.1 ± 0.1 µM and the GI50 ([1]; read-out: GI50) was 1.8 to 5.9 µM. For the same compound, the GI50 (HCT-15) was 1.8 ± 0.1 µM, the GI50 (HT29) was 2.3 ± 0.1 µM and the GI50 (NCI-H460) was 5.9 ± 0.7 µM. The GI50 (SF-268) was 1.9 ± 0.1 µM and the GI50 (SKOV3) was 2 ± 0.1 µM.
`O=C(O)CCCc1ccc(N(CCCl)CCCl)cc1` [Compound 1, Chlorambucil, reference compound] was tested, and the GI50 (H1299; Homo sapiens, NCI-H1299, 168 h) was 4.9 ± 0.2 µM, the GI50 (Hep3b; Homo sapiens, Hep3B, 168 h) was 5.1 ± 0.2 µM and the GI50 (DU-145; Homo sapiens, DU-145, 168 h) was 9.4 ± 0.2 µM. For the same compound, the GI50 (A549; Homo sapiens, A549, 168 h) was 6.1 ± 0.3 µM, the GI50 (MCF7; Homo sapiens, MCF7, 168 h) was 8.2 ± 0.2 µM and the GI50 ([1]; Homo sapiens, read-out: GI50 values) was 5 to 11 µM. For the same compound, the GI50 (HCT-15; Homo sapiens, HCT-15, 168 h) was 8.1 ± 0.1 µM, the GI50 (HT29; Homo sapiens, HT-29, 168 h) was 5 ± 0.3 µM and the GI50 (NCI-H460; Homo sapiens, NCI-H460, 168 h) was 11 ± 0.9 µM. The GI50 (SF-268; Homo sapiens, SF-268, 168 h) was 5.4 ± 0.1 µM and the GI50 (SKOV3; Homo sapiens, SK-OV-3, 168 h) was 5.5 ± 0.4 µM.
`CON(CCCCc1ccc(N(CCCl)CCCl)cc1)[C@@H]1O[C@@H](CO)[C@@H](O)[C@@H](O)[C@H]1O` [Compound 59] gave a GI50 (H1299) of 2.4 ± 0.2 µM, a GI50 (Hep3b) of 2.6 ± 0.1 µM and a GI50 (DU-145) of 3.4 ± 0.1 µM. It also gave a GI50 (A549) of 2.7 ± 0.2 µM, a GI50 (MCF7) of 1.8 ± 0.3 µM and a GI50 (HCT-15) of 2 ± 0.1 µM. For the same compound, the GI50 (HT29) was 1.9 ± 0.1 µM, the GI50 (NCI-H460) was 4.3 ± 0.4 µM and the GI50 (SF-268) was 1.7 ± 0.1 µM. For the same compound, the GI50 (SKOV3) was 2 ± 0.1 µM.
For `CON(CCCCc1ccc(N(CCCl)CCCl)cc1)C1OCC(O)C1O` (stereo not drawn) [Compound 61], the GI50 (H1299) was 0.72 ± 0.03 µM, the GI50 (Hep3b) was 1.4 ± 0.1 µM and the GI50 (DU-145) was 2.1 ± 0.1 µM. For the same compound, the GI50 (A549) was 2 ± 0.2 µM, the GI50 (MCF7) was 0.87 ± 0.09 µM and the GI50 (HCT-15) was 0.82 ± 0.05 µM. The GI50 (HT29) was 1.2 ± 0.1 µM, the GI50 (NCI-H460) was 1.9 ± 0.5 µM and the GI50 (SF-268) was 1.3 ± 0.1 µM. It also gave a GI50 (SKOV3) of 2.1 ± 0.1 µM.
`CON(CCCCc1ccc(N(CCCl)CCCl)cc1)C1OCC(O)C(O)C1O` (stereo not drawn) [Compound 62] showed a GI50 (H1299) of 0.83 ± 0.04 µM, a GI50 (Hep3b) of 1.5 ± 0.1 µM and a GI50 (DU-145) of 2.3 ± 0.1 µM. For the same compound, the GI50 (A549) was 2.3 ± 0.1 µM, the GI50 (MCF7) was 0.91 ± 0.09 µM and the GI50 (HCT-15) was 0.9 ± 0.05 µM. For the same compound, the GI50 (HT29) was 1.6 ± 0.1 µM, the GI50 (NCI-H460) was 4.5 ± 0.4 µM and the GI50 (SF-268) was 1.4 ± 0.1 µM. For the same compound, the GI50 (SKOV3) was 2.2 ± 0.1 µM.
`CON(CCCCc1ccc(N(CCCl)CCCl)cc1)C1OCC(O)C(O)C1O` (stereo not drawn) [Compound 63] was tested, and the GI50 (H1299) was 0.93 ± 0.03 µM, the GI50 (Hep3b) was 1.6 ± 0.1 µM and the GI50 (DU-145) was 2.2 ± 0.1 µM. The GI50 (A549) was 2.2 ± 0.1 µM, the GI50 (MCF7) was 1.2 ± 0.2 µM and the GI50 (HCT-15) was 0.83 ± 0.04 µM. For the same compound, the GI50 (HT29) was 1.5 ± 0.1 µM, the GI50 (NCI-H460) was 2.9 ± 0.3 µM and the GI50 (SF-268) was 1.5 ± 0.1 µM. It also gave a GI50 (SKOV3) of 2.4 ± 0.1 µM.
`C[C@H]1OC(N(O)CCCCc2ccc(N(CCCl)CCCl)cc2)[C@H](O)[C@@H](O)[C@H]1O` (stereo partly drawn) [Compound 66, N-Hydroxy-4-(4-N′,N′-bis(2-chloroethyl)amino)phenylbutylamino-D-fucoside] gave a GI50 (H1299) of 2.6 ± 0.1 µM, a GI50 (Hep3b) of 3.6 ± 0.3 µM and a GI50 (DU-145) of 5.7 ± 0.4 µM. For the same compound, the GI50 (A549) was 6.4 ± 0.3 µM, the GI50 (MCF7) was 2.7 ± 0.1 µM and the GI50 (HCT-15) was 3.8 ± 0.3 µM. For the same compound, the GI50 (HT29) was 4.6 ± 0.1 µM, the GI50 (NCI-H460) was 4.9 ± 0.2 µM and the GI50 (SF-268) was 1.4 ± 0.1 µM. It also gave a GI50 (SKOV3) of 4.7 ± 0.1 µM.
`O=C1O[C@@H]2[C@@H](O)[C@H](N(O)CCCCc3ccc(N(CCCl)CCCl)cc3)O[C@@H]2[C@@H]1O` [Compound 67, N-Hydroxy-4-(4-N′,N′-bis(2-chloroethyl)amino)phenylbutylamino-D-glucurono-6,3-lactonide] was tested, and the GI50 (H1299) was 3.8 ± 0.1 µM, the GI50 (Hep3b) was 7.2 ± 0.3 µM and the GI50 (DU-145) was 14.8 ± 0.8 µM. The GI50 (A549) was 10.4 ± 0.6 µM, the GI50 (MCF7) was 4.1 ± 0.2 µM and the GI50 (HCT-15) was 8.5 ± 0.5 µM. The GI50 (HT29) was 9.9 ± 0.2 µM, the GI50 (NCI-H460) was 13.1 ± 0.4 µM and the GI50 (SF-268) was 3.1 ± 0.1 µM. The GI50 (SKOV3) was 10.1 ± 0.4 µM.
For `O[C@@H]1[C@H](O)COC(N(O)CCCCc2ccc(N(CCCl)CCCl)cc2)[C@@H]1O` (stereo partly drawn) [Compound 68, N-Hydroxy-4-(4-N′,N′-bis(2-chloroethyl)amino)phenylbutylamino-D-riboside], the GI50 (H1299) was 1.6 ± 0.2 µM, the GI50 (Hep3b) was > 5 µM and the GI50 (DU-145) was > 5 µM. It also gave a GI50 (A549) of 0.84 ± 0.05 µM, a GI50 (MCF7) of 3.2 ± 0.2 µM and a GI50 (HCT-15) of 0.87 ± 0.05 µM. The GI50 (HT29) was 0.9 ± 0.05 µM, the GI50 (NCI-H460) was 1.04 ± 0.06 µM and the GI50 (SF-268) was 1.5 ± 0.1 µM. For the same compound, the GI50 (SKOV3) was 0.89 ± 0.04 µM.
For `C[C@H]1O[C@@H](NNC(=O)CCCc2ccc(N(CCCl)CCCl)cc2)[C@H](O)[C@@H](O)[C@H]1O` [Compound 72, 4-(4-N′,N′-bis(2-chloroethyl)amino)phenylbutylhydrazido-β-D-fucoside], the GI50 (H1299) was 8.7 ± 0.3 µM, the GI50 (Hep3b) was 11 ± 0.3 µM and the GI50 (DU-145) was 24 ± 2 µM. The GI50 (A549) was 28 ± 1 µM, the GI50 (MCF7) was 6.3 ± 0.2 µM and the GI50 (HCT-15) was > 100 µM. For the same compound, the GI50 (HT29) was 16.7 ± 0.7 µM, the GI50 (NCI-H460) was 51 ± 2 µM and the GI50 (SF-268) was 5.8 ± 0.1 µM. The GI50 (SKOV3) was 22 ± 1 µM.
Compound `O=C(CCCc1ccc(N(CCCl)CCCl)cc1)NN[C@@H]1O[C@H]2[C@H](OC(=O)[C@H]2O)[C@H]1O` [Compound 73, 4-(4-N′,N′-bis(2-chloroethyl)amino)phenylbutylhydrazido-D-glucurono-6,3-lactonide] has a GI50 (H1299) of 12.9 ± 0.7 µM, a GI50 (Hep3b) of 17.7 ± 0.4 µM and a GI50 (DU-145) of 23 ± 2 µM. The GI50 (A549) was 31 ± 2 µM, the GI50 (MCF7) was 9.9 ± 0.5 µM and the GI50 (HCT-15) was > 100 µM. For the same compound, the GI50 (HT29) was 30 ± 2 µM, the GI50 (NCI-H460) was 43 ± 4 µM and the GI50 (SF-268) was 8.9 ± 0.4 µM. The GI50 (SKOV3) was 37 ± 2 µM.
`O=C(CCCc1ccc(N(CCCl)CCCl)cc1)NNC1OC[C@@H](O)[C@H](O)[C@H]1O` (stereo partly drawn) [Compound 75, 4-(4-N′,N′-bis(2-chloroethyl)amino)phenylbutylhydrazido-D-xyloside] showed a GI50 (H1299) of 3.9 ± 0.2 µM, a GI50 (Hep3b) of 5.5 ± 0.4 µM and a GI50 (DU-145) of 19 ± 2 µM. The GI50 (A549) was 14.8 ± 0.7 µM, the GI50 (MCF7) was 4.5 ± 0.2 µM and the GI50 (HCT-15) was > 100 µM. The GI50 (HT29) was 7.2 ± 0.1 µM, the GI50 (NCI-H460) was 26 ± 3 µM and the GI50 (SF-268) was 2.5 ± 0.1 µM. The GI50 (SKOV3) was 12 ± 0.5 µM.
Work on “N-Hydroxy-4-(4-N′,N′-bis(2-chloroethyl)amino)phenylbutylamino-D-threoside nitrone [Compound 70]” yielded a GI50 (H1299) of 1.07 ± 0.08 µM, a GI50 (Hep3b) of 1.7 ± 0.1 µM and a GI50 (DU-145) of 3.6 ± 0.2 µM. It also gave a GI50 (A549) of 3 ± 0.2 µM, a GI50 (MCF7) of 2 ± 0.1 µM and a GI50 (HCT-15) of 2.5 ± 0.1 µM. For the same compound, the GI50 (HT29) was 3.2 ± 0.1 µM, the GI50 (NCI-H460) was 3.8 ± 0.1 µM and the GI50 (SF-268) was 1.2 ± 0.1 µM. The GI50 (SKOV3) was 2.6 ± 0.1 µM.
